In patent US6759538B2, “Substituted diphenyl heterocycles useful for treating HCV infection” (priority 2001, dated 2004):
pIC50: −log10 of the molar value.

Biological target: HCV replicon
Test: HCV replicon assay (luciferase)
Assay type: cell-based, Hepatitis C virus (HCV)
Conditions: 5-2 Luc replicon cells, 24 hours with compound, luciferase emission; first symbol of Replicon/Western
Source text: In one embodiment, the inhibitory activity of the compounds can be confirmed in a replicon assay that assesses the ability of a test compound to block or inhibit HCV replication in replicon cells. One example of a suitable replicon assay is the liver cell-line Huh 7-based replicon assay described in Lohmann et al., 1999, Science 285:110-113. A specific example of this replicon assay which utilizes luciferase translation is provided in the Examples Section. In one embodiment of this assay, the amount of test compound that yields a 50% reduction in translation as compared to a control cell (IC50) may be determined.
The inhibitory activity of certain exemplary compounds of the invention was confirmed using an HCV replicon assay. The HCV replicon can include such features as the HCV 5′ untranslated region including the HCV IRES, the HCV 3′ untranslated region, selected HCV genes encoding HCV polypeptides, selectable markers, and a reporter gene such as luciferase, GFP, etc. In the assay, actively dividing 5-2 Luc replicon-comprising cells (obtained from Rolf Bartenschlager; see Lohmann et al., 1999, Science 285:110-113) were seeded at a density of between about 5,000 and 7,500 cells/well onto 96 well plates (about 90 μl of cells per well) and incubated at 37° C. and 5% CO2 for 24 hours. Then, the test compound (in a volume of about 10 μl) was added to the wells at various concentrations and the cells were incubated for an additional 24 hours before luciferase assay. The media was aspirated from each well and Bright-Glo (Promega, Madison, Wis.) luciferase assay reagents were added to each well according to the manufacturer's instructions. Briefly, the Bright-Glo reagent was diluted 1:1 with PBS and 100 μl of diluted reagent was added to each well. After 5 min of incubation at room temperature, luciferin emission was quantified with a luminometer. In this assay, the amount of test compound that yielded a 50% reduction in luciferase emission (IC50) was determined.

“2,2-Dichloro-N-[3-[3-[2,6-dimethyl-4-(N-morpholino-2-ethyleneoxy)phenyl]-5-isoxazolyl]phenyl] Acetamide [Compound 23]” was tested. Which pIC50 did it give?
The pIC50 was no less than 5.00.

`CN(C)C1CCN(c2cccc(Cl)c2-c2cc(-c3cccc(NC(=O)C(Cl)Cl)c3)on2)C1` (racemic) [Compound 132, (±)-2,2-Dichloro-N-[3-[3-[2-chloro-6-(3-dimethylamino-N-pyrrolidino)phenyl]-5-isoxazolyl]-phenyl] Acetamide] was tested. Which pIC50 did it give?
The pIC50 was no less than 5.00.

How did the pIC50 turn out when `O=C(Nc1cccc(-c2cc(-c3c(Cl)cccc3Cl)no2)c1)C(Br)Br` [Compound 29, 2,2-Dibromo-N-[3-[3-(2,6-dichlorophenyl)-5-isoxazolyl]phenyl] Acetamide] was run?
The pIC50 was no less than 5.00.

With `Cc1cccc(Cl)c1-c1cc(-c2cccc(NC(=O)C(Cl)Cl)c2)on1` [Compound 31, 2,2-Dichloro-N-[3-[3-(2-chloro-6-methylphenyl)-5-isoxazolyl]phenyl] Acetamide] as the compound, how does the pIC50 read?
The pIC50 was no less than 5.00.

`O=C(Nc1cccc(-c2cc(-c3ccccc3C(F)(F)F)no2)c1)C(Cl)Cl` [Compound 33, 2,2-Dichloro-N-[3-[3-(2-trifluoromethylphenyl)-5-isoxazolyl]phenyl] Acetamide] was tested. Which pIC50 did it give?
Its pIC50 is no less than 5.00.

`O=C(Nc1cccc(-c2cc(-c3c(O)cccc3C(F)(F)F)no2)c1)C(Cl)Cl` [Compound 35, 2,2-Dichloro-N-[3-[3-(2-hydroxy-6-trifluoromethylphenyl)-5-isoxazolyl]phenyl] Acetamide] was tested. Which pIC50 did it give?
The pIC50 was no less than 5.00.

How did the pIC50 turn out when `CC(C)c1cccc(Cl)c1-c1cc(-c2cccc(NC(=O)C(Cl)Cl)c2)on1` [Compound 39, 2,2-Dichloro-N-[3-[3-(2-chloro-6-isopropylphenyl)-5-isoxazolyl]phenyl] Acetamide] was run?
The pIC50 was no less than 5.00.

`O=C(Nc1cccc(-c2cc(-c3c(F)cccc3C(F)(F)F)no2)c1)C(Cl)Cl` [Compound 41, 2,2-Dichloro-N-[3-[3-(2-fluoro-6-trifluoromethylphenyl)-5-isoxazolyl]phenyl] Acetamide] was tested. Which pIC50 did it give?
Its pIC50 is no less than 5.00.

With `COc1cccc(F)c1-c1cc(-c2cccc(NC(=O)C(Cl)Cl)c2)on1` [Compound 43, 2,2-Dichloro-N-[3-[3-(2-fluoro-6-methoxyphenyl)-5-isoxazolyl]phenyl] Acetamide] as the compound, how does the pIC50 read?
The pIC50 was no less than 5.00.

`O=C(Nc1cccc(-c2cc(-c3ccccc3OC(F)F)no2)c1)C(Cl)Cl` [Compound 45, 2,2-Dichloro-N-[3-[3-(2-difluoromethoxyphenyl)-5-isoxazolyl]phenyl] Acetamide] was tested. Which pIC50 did it give?
Its pIC50 is no less than 5.00.

How did the pIC50 turn out when `Cc1cccc(C)c1-c1cc(-c2cccc(NC(=O)C(Cl)Cl)c2)on1` [Compound 47, 2,2-Dichloro-N-[3-[3-(2,6-dimethylphenyl)-5-isoxazolyl]phenyl] Acetamide] was run?
The pIC50 was no less than 5.00.

How did the pIC50 turn out when `O=C(Nc1cccc(-c2cc(-c3c(F)cccc3I)no2)c1)C(Cl)Cl` [Compound 49, 2,2-Dichloro-N-[3-[3-(2-fluoro-6-iodophenyl)-5-isoxazolyl]phenyl] Acetamide] was run?
The pIC50 was no less than 5.00.

With `Cc1ccc(Cl)c(-c2cc(-c3cccc(NC(=O)C(Cl)Cl)c3)on2)c1F` [Compound 51, 2,2-Dichloro-N-[3-[3-(6-chloro-2-fluoro-3-methylphenyl)-5-isoxazolyl]phenyl] Acetamide] as the compound, how does the pIC50 read?
Its pIC50 is no less than 5.00.

With `O=C(Nc1cccc(-c2cc(-c3c(F)ccc(F)c3Cl)no2)c1)C(Cl)Cl` [Compound 53, 2,2-Dichloro-N-[3-[3-(2-chloro-3,6-difluorophenyl)-5-isoxazolyl]phenyl] Acetamide] as the compound, how does the pIC50 read?
Its pIC50 is no less than 5.00.

With `CN(C(=O)C(Cl)Cl)c1cccc(-c2cc(-c3c(Cl)cccc3Cl)no2)c1` [Compound 57, 2,2-Dicbloro-N-[3-[3-(2,6-dichlorophenyl)-5-isoxazolyl]phenyl]-N-methyl Acetamide] as the compound, how does the pIC50 read?
The pIC50 was no less than 5.00.

How did the pIC50 turn out when `CCOc1ccccc1-c1cc(-c2cccc(NC(=O)C(Cl)Cl)c2)on1` [Compound 61, 2,2-Dichloro-N-[3-[3-(2-ethoxyphenyl)-5-isoxazolyl]phenyl] Acetamide] was run?
Its pIC50 is no less than 5.00.

With `CC(C)c1ccccc1-c1cc(-c2cccc(NC(=O)C(Cl)Cl)c2)on1` [Compound 63, 2,2-Dichloro-N-[3-[3-(2-isopropylphenyl)-5-isoxazolyl]phenyl] Acetamide] as the compound, how does the pIC50 read?
The pIC50 was no less than 5.00.
